e = 2'-O-(2-methoxyethyl) (MOE); k = constrained ethyl (cEt); d = 2'-deoxy (DNA); m = 2'-O-methyl; f = 2'-fluoro
Target: AMPA-R
Assay: [3H]AMPA radioligand binding assay on rat brain synaptic membranes;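 note: competition binding in which test compounds at rising concentrations displace [3H]AMPA from AMPA-R on rat brain synaptic membranes, with reduced bound radioligand as read-out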
Conditions: for % Inhibition @ Concentration 100 uM: Table 8 (3′-terminal nucleobase/sugar variants); for % Inhibition @ Concentration 0.1 uM: Table 8, 0.1 uM; for % Inhibition @ Concentration 1 uM: Table 8, 1 uM; for % Inhibition @ Concentration 10 uM: Table 8, 10 uM

For ASGSCMAFCFUFUMUSDM [RG-NG-1037], the IC50 (Table 8) was ≥ 100 µM, the “% Inhibition @ Concentration 100 uM” value was 10.7% and the “% Inhibition @ Concentration 0.1 uM” value was 11.1%. For the same sequence, the “% Inhibition @ Concentration 1 uM” value was 9.2% and the “% Inhibition @ Concentration 10 uM” value was 2.4%.

In the case of ASGSCMAFCFUFUMUSED [RG-NG-1039], the “% Inhibition @ Concentration 100 uM” value is reported as 30.2%, the “% Inhibition @ Concentration 0.1 uM” value is reported as 27.3% and the “% Inhibition @ Concentration 1 uM” value is reported as 27%. The “% Inhibition @ Concentration 10 uM” value was 35.8%.

In the case of ASGSCMAFCFUFUMUSGD [RG-NG-1033], the IC50 (Table 8) is reported as 0.13 µM, the “% Inhibition @ Concentration 100 uM” value is reported as 97.3% and the “% Inhibition @ Concentration 0.1 uM” value is reported as 44.9%. For the same sequence, the “% Inhibition @ Concentration 1 uM” value was 80.9% and the “% Inhibition @ Concentration 10 uM” value was 96.5%.

In the case of ASGSCMAFCFUFUMUSGE [RG-NG-1025], the IC50 (Experiment #3) is reported as 1.85 µM, the “% Inhibition @ 0.1 uM” value (Experiment #3, 0.1 uM) is reported as −3.8% and the “% Inhibition @ 1 uM” value (Experiment #3, 1 uM) is reported as 36.5%. The “% Inhibition @ 10 uM” value (Experiment #3, 10 uM) was 84.1% and the “% Inhibition @ 100 uM” value (Experiment #3, 100 uM) was 96.4%.

In the case of ASGSCMAFCFUFUMUSGM [RG-NG-1034], the IC50 (Table 8) is reported as 1.2 µM, the “% Inhibition @ Concentration 100 uM” value is reported as 99.7% and the “% Inhibition @ Concentration 0.1 uM” value is reported as 14.3%. For the same sequence, the “% Inhibition @ Concentration 1 uM” value was 44.8% and the “% Inhibition @ Concentration 10 uM” value was 85.2%.

With ASGSCMAFCFUFUMUSIM [RG-NG-1035] the IC50 (Table 8) was 0.76 µM, the “% Inhibition @ Concentration 100 uM” value was 98.5% and the “% Inhibition @ Concentration 0.1 uM” value was 27.2%. The “% Inhibition @ Concentration 1 uM” value was 46.3% and the “% Inhibition @ Concentration 10 uM” value was 91.3%.

In the case of ASGSCMAFCFUFUMUSNM [RG-NG-1036], the IC50 (Table 8) is reported as 18.6 µM, the “% Inhibition @ Concentration 100 uM” value is reported as 78.1% and the “% Inhibition @ Concentration 0.1 uM” value is reported as 19.2%. The “% Inhibition @ Concentration 1 uM” value was 11.3% and the “% Inhibition @ Concentration 10 uM” value was 36.2%.

ASGSCMALCFUFUMUSCS [RG-NG-1026] was tested, and the IC50 (Experiment #2) was > 100 µM, the “% Inhibition @ 0.1 uM” value (Experiment #2, 0.1 uM) was −3.3% and the “% Inhibition @ 1 uM” value (Experiment #2, 1 uM) was −1.1%. For the same sequence, the “% Inhibition @ 10 uM” value (Experiment #2, 10 uM) was −3.5% and the “% Inhibition @ 100 uM” value (Experiment #2, 100 uM) was 2.3%.

ASGSCMASCMUSUMUSGS [RG-NG-1003] was tested, and the IC50 (Experiment #1) was 9.26 µM, the “% Inhibition @ 0.1 uM” value (Experiment #1, 0.1 uM) was 5.7% and the “% Inhibition @ 1 uM” value (Experiment #1, 1 uM) was 13.9%. For the same sequence, the “% Inhibition @ 10 uM” value (Experiment #1, 10 uM) was 56.9% and the “% Inhibition @ 100 uM” value (Experiment #1, 100 uM) was 77.8%.

With ASGSCSAFCFUFUMUSCS [RG-NG-1027] the IC50 (Experiment #2) was > 100 µM, the “% Inhibition @ 0.1 uM” value (Experiment #2, 0.1 uM) was −2.2% and the “% Inhibition @ 1 uM” value (Experiment #2, 1 uM) was 2.3%. For the same sequence, the “% Inhibition @ 10 uM” value (Experiment #2, 10 uM) was −2.2% and the “% Inhibition @ 100 uM” value (Experiment #2, 100 uM) was 3%.

ASGSCSALCFUFUMUSCS [RG-NG-1028] was tested, and the IC50 (Experiment #2) was > 100 µM, the “% Inhibition @ 0.1 uM” value (Experiment #2, 0.1 uM) was 15.7% and the “% Inhibition @ 1 uM” value (Experiment #2, 1 uM) was 2.1%. The “% Inhibition @ 10 uM” value (Experiment #2, 10 uM) was 2% and the “% Inhibition @ 100 uM” value (Experiment #2, 100 uM) was 2.7%.

With ASGSCSASCSUSUSUS [RG-NG-1002] the IC50 (Experiment #1) was > 100 µM, the “% Inhibition @ 0.1 uM” value (Experiment #1, 0.1 uM) was 0% and the “% Inhibition @ 1 uM” value (Experiment #1, 1 uM) was −2.0%. The “% Inhibition @ 10 uM” value (Experiment #1, 10 uM) was −16.9%, the “% Inhibition @ 100 uM” value (Experiment #1, 100 uM) was 24.0% and the IC50 (Experiment #2) was > 100 µM. For the same sequence, the “% Inhibition @ 0.1 uM” value (Experiment #2, 0.1 uM) was −5.5%, the “% Inhibition @ 1 uM” value (Experiment #2, 1 uM) was 4.6% and the “% Inhibition @ 10 uM” value (Experiment #2, 10 uM) was −2.1%. For the same sequence, the “% Inhibition @ 100 uM” value (Experiment #2, 100 uM) was 24.6%.

In the case of “CETEGSCEAECETEGSTEADASGSCMAFCFUFUMUSGS (CTGCACTGTAAGCACUUUG; sugars from the 5' end eekeeeekedkkmfffmkk, backbone and methylation of C not given here) [RG-NG-1040]”, the IC50 (Table 8) is reported as 28.6 µM, the “% Inhibition @ Concentration 100 uM” value is reported as 64.1% and the “% Inhibition @ Concentration 0.1 uM” value is reported as 10.4%. The “% Inhibition @ Concentration 1 uM” value was 14.4% and the “% Inhibition @ Concentration 10 uM” value was 38.9%.

With “TEAASGSCMAFCFUFUMUSCS (TAAGCACUUUC; 2'-MOE at 1, cEt at 3, 4, 10, 11, 2'-O-methyl at 5, 9, 2'-fluoro at 6, 7, 8, other sugars and backbone not given here) [RG-NG-1021]” the IC50 (Experiment #3) was > 100 µM, the “% Inhibition @ 0.1 uM” value (Experiment #3, 0.1 uM) was −2% and the “% Inhibition @ 1 uM” value (Experiment #3, 1 uM) was −10.9%. The “% Inhibition @ 10 uM” value (Experiment #3, 10 uM) was −11.5% and the “% Inhibition @ 100 uM” value (Experiment #3, 100 uM) was −1.5%.

With “TEAFASGSCMAFCFUFUMUSCS (TAAGCACUUUC; 2'-MOE, S-cEt, 2'-F, 2'-OMe modifications; modified_base 1 OTHER; thymine; misc_feature 1..11 Synthetic: RG-NG-1022; modified_base 1..2 OTHER; 2'-O-methoxyethyl nucleoside; modified_base 3..4 OTHER; S-constrained ethyl nucleoside; modified_base 5 OTHER; 2'-O-methyl nucleoside; modified_base 6..8 OTHER; 2'-fluoro nucleoside; modified_base 9 OTHER; modified_base 10..11 OTHER)” the IC50 (Experiment #3) was > 100 µM, the “% Inhibition @ 0.1 uM” value (Experiment #3, 0.1 uM) was −23.5% and the “% Inhibition @ 1 uM” value (Experiment #3, 1 uM) was −5.4%. The “% Inhibition @ 10 uM” value (Experiment #3, 10 uM) was −7% and the “% Inhibition @ 100 uM” value (Experiment #3, 100 uM) was −10.9%.

In the case of “TEGSTEAASGSCMAFCFUFUMUSCS (TGTAAGCACUUUC; anti-miR; 2'-MOE at 1, 3, cEt at 2, 5, 6, 12, 13, 2'-O-methyl at 7, 11, 2'-fluoro at 8, 9, 10, other sugars and backbone not given here) [RG-NG-1020]”, the IC50 (Experiment #3) is reported as > 100 µM, the “% Inhibition @ 0.1 uM” value (Experiment #3, 0.1 uM) is reported as 17% and the “% Inhibition @ 1 uM” value (Experiment #3, 1 uM) is reported as 6.6%. For the same sequence, the “% Inhibition @ 10 uM” value (Experiment #3, 10 uM) was −23.3% and the “% Inhibition @ 100 uM” value (Experiment #3, 100 uM) was −7.9%.

In the case of “USASAMGCSASCSUMUMUSGS (antisense UAAGCACUUUG; cEt at 1, 2, 5, 6, 7, 10, 11, 2'-O-methyl at 3, 8, 9, other sugars and backbone not given here) [RG-NG-1005]”, the IC50 (Experiment #1) is reported as > 100 µM, the “% Inhibition @ 0.1 uM” value (Experiment #1, 0.1 uM) is reported as 10.8% and the “% Inhibition @ 1 uM” value (Experiment #1, 1 uM) is reported as −1.3%. For the same sequence, the “% Inhibition @ 10 uM” value (Experiment #1, 10 uM) was 0.8% and the “% Inhibition @ 100 uM” value (Experiment #1, 100 uM) was 28.3%.

In the case of USASASGSCSASCSUSUSUSGS [RG-NG-1004], the IC50 (Experiment #1) is reported as 17.3 µM, the “% Inhibition @ 0.1 uM” value (Experiment #1, 0.1 uM) is reported as −4.7% and the “% Inhibition @ 1 uM” value (Experiment #1, 1 uM) is reported as 4.7%. For the same sequence, the “% Inhibition @ 10 uM” value (Experiment #1, 10 uM) was 44.2% and the “% Inhibition @ 100 uM” value (Experiment #1, 100 uM) was 76.1%.
